Molecular target: T1, CFTR (F508del/MF-HBE cells) (Homo sapiens, UniProt P13569, DEL508-508)
T1 construct: human bronchial epithelial (HBE) cells derived from CF subjects heterozygous for F508del and a minimal function CFTR mutation; endogenous in cells; host or cells: primary human bronchial epithelial cells from CF subjects (F508del/MF genotype)
Assay: Ussing chamber assay of CFTR-mediated short-circuit currents (identification of potentiator compounds)
Format: cell-based
Settings: CFTR-mediated ISC in F508del/MF-HBE cells; incubated 18-24 hours at 37° C. with 10 μM (14S)-8-[3-(2-{dispiro[2.0.2.1]heptan-7-yl}ethoxy)-1H-pyrazol-1-yl]-...-2,2,4-trione, 20% human serum
Description: Ussing Chamber Assay of CFTR-Mediated Short-Circuit Currents
Ussing chamber experiments were performed using human bronchial epithelial (HBE) cells derived from CF subjects heterozygous for F508del and a minimal function CFTR mutation (F508del/MF-HBE) and cultured as previously described (Neuberger T, Burton B, Clark H, Van Goor F Methods Mol Biol 2011:741:39-54). After four days the apical media was removed, and the cells were grown at an air liquid interface for >14 days prior to use.
To isolate the CFTR-mediated short-circuit (ISC) current, F508del/MF-HBE grown on Costar® Snapwell™ cell culture inserts were mounted in an Ussing chamber and the transepithelial ISC was measured under voltage-clamp recording conditions (Vhold=0 mV) at 37° C. The basolateral solution contained (in mM) 145 NaCl, 0.83 K2HPO4, 3.3 KH2PO4, 1.2 MgCl2, 1.2 CaCl2), 10 Glucose, 10 HEPES (pH adjusted to 7.4 with NaOH) and the apical solution contained (in mM) 145 NaGluconate, 1.2 MgCl2, 1.2 CaCl2), 10 glucose, 10 HEPES (pH adjusted to 7.4 with NaOH) and 30 μM amiloride to block the epithelial sodium channel. Forskolin (20 μM) was added to the apical surface to activate CFTR, followed by apical addition of a CFTR inhibitor cocktail consisting of BPO, GlyH-101 and CFTR inhibitor 172 (each at 20 μM final assay concentration) to specifically isolate CFTR currents. The CFTR-mediated ISC (μA/cm^2) for each condition was determined from the peak forskolin response to the steady-state current following inhibition.
Identification of Potentiator Compounds
The activity of the CFTR potentiator compounds on the CFTR-mediated ISC was determined in Ussing chamber studies as described above. The F508del/MF-HBE cell cultures were incubated with the potentiator compounds at a range of concentrations in combination with 10 μM (14S)-8-[3-(2-{dispiro[2.0.2.1]heptan-7-yl}ethoxy)-1H-pyrazol-1-yl]-12,12-dimethyl-2λ^6-thia-3,9,11,18,23-pentaazatetracyclo [17.3.1.111,14.05,10]tetracosa-1(22),5,7,9,19(23),20-hexaene-2,2,4-trione for 18-24 hours at 37° C. and in the presence of 20% human serum. The concentration of potentiator compounds and (14S)-8-[3-(2-{dispiro[2.0.2.1]heptan-7-yl}ethoxy)-1H-pyrazol-1-yl]-12,12-dimethyl-2λ^6-thia-3,9,11,18,23-pentaazatetracyclo [17.3.1.111,14.05,10]tetracosa-1(22),5,7,9,19(23),20-hexaene-2,2,4-trione used during the 18-24 hours incubations was kept constant throughout the Ussing chamber measurement of the CFTR-mediated ISC to ensure compounds were present throughout the entire experiment. The efficacy and potency of the putative F508del potentiators was compared to that of the known Vertex potentiator, ivacaftor (N-[2,4-bis(1,1-dimethylethyl)-5-hydroxyphenyl]-1,4-dihydro-4-oxoquinoline-3-carboxamide).

T1 sequence (P13569 with tags, fused parts or gaps DEL508-508): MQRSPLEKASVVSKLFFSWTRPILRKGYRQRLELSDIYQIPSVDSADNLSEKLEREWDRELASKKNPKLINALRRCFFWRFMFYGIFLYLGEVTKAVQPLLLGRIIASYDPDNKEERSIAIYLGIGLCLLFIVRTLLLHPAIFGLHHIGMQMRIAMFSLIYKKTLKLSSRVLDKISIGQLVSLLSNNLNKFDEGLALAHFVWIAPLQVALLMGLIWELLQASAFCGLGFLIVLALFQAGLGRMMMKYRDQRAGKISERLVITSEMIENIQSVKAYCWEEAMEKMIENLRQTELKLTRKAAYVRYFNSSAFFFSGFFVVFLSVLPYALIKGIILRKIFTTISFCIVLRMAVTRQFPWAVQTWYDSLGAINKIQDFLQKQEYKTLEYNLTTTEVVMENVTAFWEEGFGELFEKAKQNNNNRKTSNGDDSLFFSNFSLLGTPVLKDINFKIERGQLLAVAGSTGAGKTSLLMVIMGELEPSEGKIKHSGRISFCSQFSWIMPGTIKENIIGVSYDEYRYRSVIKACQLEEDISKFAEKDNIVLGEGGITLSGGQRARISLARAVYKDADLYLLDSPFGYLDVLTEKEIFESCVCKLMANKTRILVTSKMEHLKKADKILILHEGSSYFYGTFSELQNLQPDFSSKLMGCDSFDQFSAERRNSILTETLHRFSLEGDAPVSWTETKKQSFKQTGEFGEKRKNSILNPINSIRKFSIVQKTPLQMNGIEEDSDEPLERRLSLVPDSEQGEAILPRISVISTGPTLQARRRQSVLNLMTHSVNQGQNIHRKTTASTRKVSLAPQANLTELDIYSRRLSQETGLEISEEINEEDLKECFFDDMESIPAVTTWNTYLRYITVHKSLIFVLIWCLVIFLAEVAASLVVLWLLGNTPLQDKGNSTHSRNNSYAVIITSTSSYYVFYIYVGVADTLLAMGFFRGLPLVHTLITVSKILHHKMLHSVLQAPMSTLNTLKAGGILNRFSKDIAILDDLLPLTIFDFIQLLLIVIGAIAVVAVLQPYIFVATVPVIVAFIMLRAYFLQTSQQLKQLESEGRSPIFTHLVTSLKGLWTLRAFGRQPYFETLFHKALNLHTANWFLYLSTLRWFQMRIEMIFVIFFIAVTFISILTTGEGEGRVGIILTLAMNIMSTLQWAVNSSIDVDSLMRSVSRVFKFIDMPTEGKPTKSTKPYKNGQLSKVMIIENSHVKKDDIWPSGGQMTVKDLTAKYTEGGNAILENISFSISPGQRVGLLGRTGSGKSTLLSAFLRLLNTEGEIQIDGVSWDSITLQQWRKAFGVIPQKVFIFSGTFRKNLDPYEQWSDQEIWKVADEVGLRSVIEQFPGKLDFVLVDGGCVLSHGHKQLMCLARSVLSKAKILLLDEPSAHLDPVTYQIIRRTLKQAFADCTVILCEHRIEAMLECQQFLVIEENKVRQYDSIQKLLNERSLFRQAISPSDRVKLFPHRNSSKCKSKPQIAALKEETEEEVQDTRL

SMILES	EC50 [nM]
Nc1cc(C(F)(F)F)c2nc1-c1nnc(o1)C(O)(C(F)(F)F)CCCCC[C@@H]1COCCN21 (single isomer, unassigned) [Compound 55]	> 1000
Nc1cc(C(F)(F)F)c2nc1-c1nnc(o1)C(O)(C(F)(F)F)CCCCCCN2 (single isomer, unassigned) [Compound 56, 17-amino-6,15-bis(trifluoromethyl)-19-oxa-3,4,13,18-tetrazatricyclo[12.3.1.12,5]nonadeca-1(18),2,4,14,16-pentaen-6-ol]	< 500
CN1CCCCCCC(C)(O)C2=NN=C(O2)c2nc1c(C(F)(F)F)cc2N (single isomer, unassigned) [Compound 61, 17-amino-6,13-dimethyl-15-(trifluoromethyl)-19-oxa-3,4,13,18-tetrazatricyclo[12.3.1.12,5]nonadeca-1(17),2,4,14(18),15-pentaen-6-ol]	< 500
CN1CCCCCCC(C)(O)C2=NN=C(O2)c2nc1c(C(F)(F)F)cc2N (single isomer, unassigned) [Compound 62, 17-amino-6,13-dimethyl-15-(trifluoromethyl)-19-oxa-3,4,13,18-tetrazatricyclo[12.3.1.12,5]nonadeca-1(17),2,4,14(18),15-pentaen-6-ol]	< 500
CC(C)c1cc(N)c2nc1N1CCC[C@H]1CCCCCC(O)(C(F)(F)F)C1=NN=C2O1 (single isomer, unassigned) [Compound 63]	< 500
CC1CCCCCC(O)(C(F)(F)F)C2=NN=C(O2)c2nc(c(C(F)(F)F)cc2N)N1 (single isomer, unassigned) [Compound 65, 17-amino-12-methyl-6,15-bis(trifluoromethyl)-19-oxa-3,4,13,18-tetrazatricyclo[12.3.1.12,5]nonadeca-1(18),2,4,14,16-pentaen-6-ol]	< 500
CC1CCCCCC(O)(C(F)(F)F)C2=NN=C(O2)c2nc(c(C(F)(F)F)cc2N)N1 (single isomer, unassigned) [Compound 66, 17-amino-12-methyl-6,15-bis(trifluoromethyl)-19-oxa-3,4,13,18-tetrazatricyclo[12.3.1.12,5]nonadeca-1(18),2,4,14,16-pentaen-6-ol]	< 500
Nc1cc(C(F)(F)F)c2nc1-c1nnc(o1)C(O)(C(F)(F)F)c1cccc(c1)CCC[C@@H]1CCCN21 (single isomer, unassigned) [Compound 70]	< 500
Nc1ccc2nc1-c1nnc(o1)C(O)(C(F)(F)F)CCCCC[C@@H]1CCCN21 (single isomer, unassigned) [Compound 71]	< 500
Nc1ccc2nc1-c1nnc(o1)C(O)(C(F)(F)F)CCCCC[C@@H]1CCCN21 (single isomer, unassigned) [Compound 72]	> 1000
CN1CCCCCCC(O)(c2ccccc2)C2=NN=C(O2)c2nc1c(C(F)(F)F)cc2N (single isomer, unassigned) [Compound 77, 17-amino-13-methyl-6-phenyl-15-(trifluoromethyl)-19-oxa-3,4,13,18-tetrazatricyclo[12.3.1.12,5]nonadeca-1(18),2,4,14,16-pentaen-6-ol]	> 1000
Nc1cc(C(F)(F)F)c2nc1-c1nnc(o1)C(O)(C(F)(F)F)c1cccc(n1)CCC[C@@H]1CCCN21 (single isomer, unassigned) [Compound 82]	< 500
Nc1cc(C(F)(F)F)c2nc1-c1nnc(o1)C(O)(C(F)(F)F)c1cccc(n1)CCC[C@@H]1CCCN21 (single isomer, unassigned) [Compound 83]	500 to 1000
Nc1cc(C(F)(F)F)c2nc1-c1nnc(o1)C(O)(C(F)(F)F)c1cc(ccn1)CCC[C@@H]1CCCN21 (single isomer, unassigned) [Compound 85]	> 1000
Nc1cc(C(F)(F)F)c2nc1-c1nnc(o1)C(O)(C(F)(F)F)c1cc(ccn1)CCC[C@@H]1CCCN21 (single isomer, unassigned) [Compound 87]	< 500
Nc1cc(C(F)(F)F)c2nc1-c1nnc(o1)C(O)(C1CCOCC1)CCCCC[C@@H]1CCCN21 (single isomer, unassigned) [Compound 88]	< 500
Nc1cc(C(F)(F)F)c2nc1-c1nnc(o1)C(O)(C1CCOCC1)CCCCC[C@@H]1CCCN21 (single isomer, unassigned) [Compound 89]	> 1000
Nc1cc(C2CC2)c2nc1-c1nnc(o1)C(O)(C(F)(F)F)CCCCC[C@@H]1CCCN21 (single isomer, unassigned) [Compound 90]	< 500
Nc1cc(C2CC2)c2nc1-c1nnc(o1)C(O)(C(F)(F)F)CCCCC[C@@H]1CCCN21 (single isomer, unassigned) [Compound 91]	> 1000

More lines, now with the values ahead:

EC50 [nM]	SMILES
< 500	Nc1cc(C(F)(F)F)c2nc1-c1nnc(o1)C(O)(C(F)(F)F)CCCCCCN2C1CCC1 (single isomer, unassigned) [Compound 73, 17-amino-13-cyclobutyl-6,15-bis(trifluoromethyl)-19-oxa-3,4,13,18-tetrazatricyclo[12.3.1.12,5]nonadeca-1(18),2,4,14,16-pentaen-6-ol]
< 500	CN1CCCCCCC(O)(c2ccccc2)C2=NN=C(O2)c2nc1c(C(F)(F)F)cc2N (single isomer, unassigned) [Compound 76, 17-amino-13-methyl-6-phenyl-15-(trifluoromethyl)-19-oxa-3,4,13,18-tetrazatricyclo[12.3.1.12,5]nonadeca-1(18),2,4,14,16-pentaen-6-ol]
< 500	CN1CCCCCCC(O)(C2CC2)C2=NN=C(O2)c2nc1c(C(F)(F)F)cc2N (single isomer, unassigned) [Compound 78, 17-amino-6-cyclopropyl-13-methyl-15-(trifluoromethyl)-19-oxa-3,4,13,18-tetrazatricyclo[12.3.1.12,5]nonadeca-1(18),2,4,14,16-pentaen-6-ol]
> 1000	CN1CCCCCCC(O)(C2CC2)C2=NN=C(O2)c2nc1c(C(F)(F)F)cc2N (single isomer, unassigned) [Compound 79, 17-amino-6-cyclopropyl-13-methyl-15-(trifluoromethyl)-19-oxa-3,4,13,18-tetrazatricyclo[12.3.1.12,5]nonadeca-1(18),2,4,14,16-pentaen-6-ol]
< 500	N#Cc1cc(N)c2nc1N1CCC[C@H]1CCCCCC(O)(C(F)(F)F)C1=NN=C2O1 (single isomer, unassigned) [Compound 80]
> 1000	N#Cc1cc(N)c2nc1N1CCC[C@H]1CCCCCC(O)(C(F)(F)F)C1=NN=C2O1 (single isomer, unassigned) [Compound 81]
< 500	Nc1cc(C(F)(F)F)c2nc1-c1nnc(o1)C(O)(C(F)(F)F)c1cc(ccn1)CCC[C@@H]1CCCN21 (single isomer, unassigned) [Compound 84]
> 1000	Nc1cc(C(F)(F)F)c2nc1-c1nnc(o1)C(O)(C(F)(F)F)c1cc(ccn1)CCC[C@@H]1CCCN21 (single isomer, unassigned) [Compound 86]
> 1000	COc1ccc2cc1C(O)(C(F)(F)F)C1=NN=C(O1)c1nc(c(C(F)(F)F)cc1N)N1CCC[C@H]1CCC2 (single isomer, unassigned) [Compound 92]
< 500	COc1ccc2cc1C(O)(C(F)(F)F)C1=NN=C(O1)c1nc(c(C(F)(F)F)cc1N)N1CCC[C@H]1CCC2 (single isomer, unassigned) [Compound 93]

— patent US12324802B2, “Modulators of cystic fibrosis transmembrane conductance regulator” (Vertex Pharmaceuticals Incorporated, priority 2020, dated 2025)
